# US11458189B2, “Cytoprotective drugs” (BALMES TRANSPLANTATION, priority 2017, dated 2022)
# Starred links: 1 amine or outer side, 2 acyl side, 3 side chain; linkers in the order of their positions; H or OH if unused. Positions of bridges follow the written chain, without caps; N, C: chain ends. Non-standard residues stand in square brackets, D forms with d. Residues, ends and D or L forms follow the SMILES beside them. ξ: configuration not given here. *: point of attachment. pTerphenylCO(4''-OnC5H11) = CCCCCOc1ccc(-c2ccc(-c3ccc(C(=O)*)cc3)cc2)cc1; Orn(4R-OH,5R-OH) = O=C([C@H](C[C@@H](O)[C@@H](O)N[*:3])N[*:1])[*:2]; hTyr(3S-OH,4S-OH) = N[C@H](C(=O)O)[C@H](O)[C@@H](O)c1ccc(O)cc1; Pro(3S-OH,4S-Me) = C[C@H]1CN[C@H](C(=O)O)[C@H]1O; ξPro(4R-OH) = O=C(O)C1C[C@@H](O)CN1
# Test system: Human Astrocytes (HA)
# Test: Oxygen and glucose deprivation followed by replenishment, cell survival (calcein AM), HA
# Format: cell-based
# Description: Anidulafungin and micafungin were tested on Human Renal Glomerular Endothelial Cells (HRGEC, Innoprot P10665), on Human Renal Proximal Tubular Epithelial Cells (HRPTEpiC, Innoprot P10662), on Human Astrocytes (HA, caltag SC-1800), on Human Cardiac Microvascular Endothelial Cells (HCMEC, Caltag SC-6000), on Human Hepatic Sinusoidal Endothelial Cells (HHSEC, Caltag SC-5000), on Rat Primary Kidney Glomerular Endothelial cells (Cellbiologics, RN-6014G) and on Bovine Brain Microvascular Endothelial Cells (BBMEC, Caltag SC-B100).
# In a first phase, these isolated, purified and cryopreserved cells are thawed and multiplied according to the supplier's recommendations in T75 or T175 flasks pre-coated with 2 μg of fibronectin/[…] (CORNING) for HRGEC, HCMEC, HHSEC and BBMEC, or 2 μg poly-L-lysin/cm^2 (Caltag SC-0403) for HRPTEpiC and HA, or 15 mL/flask 175 cm^2 gelatin-based solution (Cellbiologics) in the presence of endothelial cell supplemented growth medium ECM (P60104, INNOPROT, Caltag, SC-1001) for HRGEC, HCMEC, HHSEC, RPKGEC or BBMEC, or astrocyte cell supplemented growth medium AM (Caltag SC-1801) for HA or epithelial cell supplemented growth medium EpiCM (P60106, INNOPROT) for HRPTEpiC, at 37° C. under 5% CO2 and saturated humidity until their confluency. They are then harvested by trypsinization according to the method described by the supplier for exactly 5 minutes and then reseeded in new flasks a maximum of three times.
# To carry out the oxygen and glucose deprivation test followed by their replenishment, the cells will be seeded in 96-well black plates with transparent flat bottom (GREINER). Once a sufficient number of cells has been obtained to allow seeding of 2000 to 15000 cells per well of 96-well plates depending on the cell type, the cells are seeded in these 96-well plates previously coated with an extracellular matrix as listed above for the flasks. The cells are cultured for 5 to 8 days according to the cell type, in the presence of the same growth medium as in the flask as described above except for HRGEC and HRPTEpiC for which DMEM (DUTSCHER) with 1 g/L of supplemented glucose is used, at 37° C. under 5% CO2 and saturated humidity to obtain confluency.
# On the first day of oxygen and glucose deprivation, (5th, 6th, 7th or 8th day of culture), the culture conditions are drastically changed. The medium of all plates is removed and replaced by DMEM (DUTSCHER) medium without glucose and supplemented only with 1% penicillin-streptomycin (DUTSCHER). Anidulafungin or micafungin dissolved in dimethyl sulfoxide (DMSO) is then added to each well at the desired concentration, resulting in a maximum of 1% DMSO, and the plates are placed under hypoxia at <1% 02 and 5% CO2 at 37° C. for 24 hours of culture. Each compound was tested in a concentration range.
# After 24 hours, the growth medium is changed and replaced by a richer medium, DMEM (DUTSCHER) at 1 g/L glucose and 2% FBS (INNOPROT) and 1% penicillin-streptomycin (DUTSCHER). These media will have been pre-equilibrated at 37° C. in advance. The cells are then returned to culture at 37° C. under 20% 02 and 5% CO2 for 22h.
# After 22 hours of reoxygenation, the potential protective effect of anidulafungin or micafungin is measured by a cell viability test using calcein AM (CORNING), which is a dye substrate. The calcein AM can easily cross the cell membrane of the viable cells. The AM ester groups mask the part of the molecule that chelates calcium. Once inside the cells, the (non-fluorescent) calcein AM is hydrolyzed to (fluorescent) calcein by endogenous esterases. The resulting calcein molecule binds to calcium inside the cell and remains trapped inside the cell. These molecules emit strong green fluorescence when subjected to […] of a particular wavelength (495 nm). Since dead cells lack esterase activity, only living cells are labelled.
# This cell viability test is performed in two steps. […]
# [1] = [Anidulafungin] log μM 0.1760913
# [2] = [Anidulafungin] log μM 0.7781513
# [3] = [Anidulafungin] log μM −0.1249387
# [4] = [Anidulafungin] log μM −0.30103
# [5] = [Anidulafungin] log μM −0.5228788
structure (smiles),measurement,setting,value
"CCCCCOc1ccc(-c2ccc(-c3ccc(C(=O)N[C@H]4C[C@@H](O)[C@@H](O)NC(=O)[C@@H]5[C@@H](O)[C@@H](C)CN5C(=O)[C@H]([C@@H](C)O)NC(=O)[C@H]([C@H](O)[C@@H](O)c5ccc(O)cc5)NC(=O)C5C[C@@H](O)CN5C(=O)[C@H]([C@@H](C)O)NC4=O)cc3)cc2)cc1 (stereo partly drawn) [Anidulafungin] ({pTerphenylCO(4''-OnC5H11)}-[Orn(4R-OH,5R-OH)]T[ξPro(4R-OH)][hTyr(3S-OH,4S-OH)]T[Pro(3S-OH,4S-Me)]; lactam 1-C)",Globalfluo assay 1,[Anidulafungin] log μM 0,11468420 arbitrary units
same,Globalfluo assay 2,[Anidulafungin] log μM 0,12221770 arbitrary units
same,Globalfluo assay 3,[Anidulafungin] log μM 0,14645590 arbitrary units
same,Mean globalfluo,[Anidulafungin] log μM 0,12778593 arbitrary units
same,Survival rate (%),[Anidulafungin] log μM 0,15%
same,Globalfluo assay 1,[1],11838960 arbitrary units
same,Globalfluo assay 2,[1],12087610 arbitrary units
same,Globalfluo assay 3,[1],13326480 arbitrary units
same,Mean globalfluo,[1],12417683 arbitrary units
same,Survival rate (%),[1],13%
same,Globalfluo assay 1,[Anidulafungin] log μM 0.30103,13177930 arbitrary units
same,Globalfluo assay 2,[Anidulafungin] log μM 0.30103,13103050 arbitrary units
same,Globalfluo assay 3,[Anidulafungin] log μM 0.30103,13640130 arbitrary units
same,Mean globalfluo,[Anidulafungin] log μM 0.30103,13307037 arbitrary units
same,Survival rate (%),[Anidulafungin] log μM 0.30103,18%
same,Globalfluo assay 1,[Anidulafungin] log μM 0.60206,12006890 arbitrary units
same,Globalfluo assay 2,[Anidulafungin] log μM 0.60206,13270810 arbitrary units
same,Globalfluo assay 3,[Anidulafungin] log μM 0.60206,14798310 arbitrary units
same,Mean globalfluo,[Anidulafungin] log μM 0.60206,13358670 arbitrary units
same,Survival rate (%),[Anidulafungin] log μM 0.60206,18%
same,Globalfluo assay 1,[2],14108250 arbitrary units
same,Globalfluo assay 2,[2],14242150 arbitrary units
same,Globalfluo assay 3,[2],13880120 arbitrary units
same,Mean globalfluo,[2],14076840 arbitrary units
same,Survival rate (%),[2],22%
same,Globalfluo assay 1,[Anidulafungin] log μM 0.90309,13394210 arbitrary units
same,Globalfluo assay 2,[Anidulafungin] log μM 0.90309,14898570 arbitrary units
same,Globalfluo assay 3,[Anidulafungin] log μM 0.90309,14923380 arbitrary units
same,Mean globalfluo,[Anidulafungin] log μM 0.90309,14405387 arbitrary units
same,Survival rate (%),[Anidulafungin] log μM 0.90309,24%
same,Globalfluo assay 1,[3],9674527 arbitrary units
same,Globalfluo assay 2,[3],11462560 arbitrary units
same,Globalfluo assay 3,[3],11240740 arbitrary units
same,Mean globalfluo,[3],10792609 arbitrary units
same,Survival rate (%),[3],4%
same,Globalfluo assay 1,[4],12822290 arbitrary units
same,Globalfluo assay 2,[4],11197900 arbitrary units
same,Globalfluo assay 3,[4],11873360 arbitrary units
same,Mean globalfluo,[4],11964517 arbitrary units
same,Survival rate (%),[4],10%
same,Globalfluo assay 1,[5],11050980 arbitrary units
same,Globalfluo assay 2,[5],10353030 arbitrary units
same,Globalfluo assay 3,[5],11612880 arbitrary units
same,Mean globalfluo,[5],11005630 arbitrary units
same,Survival rate (%),[5],5%
same,Globalfluo assay 1,[Anidulafungin] log μM −1,9709693 arbitrary units
same,Globalfluo assay 2,[Anidulafungin] log μM −1,10543570 arbitrary units
same,Globalfluo assay 3,[Anidulafungin] log μM −1,12170290 arbitrary units
same,Mean globalfluo,[Anidulafungin] log μM −1,10807851 arbitrary units
same,Survival rate (%),[Anidulafungin] log μM −1,4%
same,Globalfluo assay 1,[Anidulafungin] log μM −2,10301450 arbitrary units
same,Globalfluo assay 2,[Anidulafungin] log μM −2,9760112 arbitrary units
same,Globalfluo assay 3,[Anidulafungin] log μM −2,11132460 arbitrary units
same,Mean globalfluo,[Anidulafungin] log μM −2,10398007 arbitrary units
same,Survival rate (%),[Anidulafungin] log μM −2,2%
